The target in one assay is T1, rat B1R (Rattus norvegicus, UniProt P97583).
T1 construct: expressed in transfected cells; host or cells: CHO K1 cells
T1 sequence (P97583 1-337): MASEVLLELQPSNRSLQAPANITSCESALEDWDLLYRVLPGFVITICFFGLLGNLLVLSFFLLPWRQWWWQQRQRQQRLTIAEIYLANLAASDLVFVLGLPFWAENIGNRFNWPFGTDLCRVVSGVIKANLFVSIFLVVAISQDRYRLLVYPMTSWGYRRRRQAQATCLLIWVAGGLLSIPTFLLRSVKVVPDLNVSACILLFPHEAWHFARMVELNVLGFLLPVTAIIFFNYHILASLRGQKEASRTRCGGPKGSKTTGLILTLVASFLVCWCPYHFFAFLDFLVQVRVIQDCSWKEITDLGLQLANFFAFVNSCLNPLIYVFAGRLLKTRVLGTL
The experiment in a line: FLIPR Ca2+ functional study on bradykinin receptor 1 (rB1R CHO K1 cells). The class given is cell-based. Particulars: % inhibition rat B1R at 10 μM. In short, it runs like this: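 Antagonism was calculated as % of maximal inhibition of the Ca2+ rise triggered by agonist at EC80 (Lys-Des-Arg9-bradykinin for hB1R, Des-Arg9-bradykinin for rB1R), added 10-20 min after test compound (10 μM or serial dilutions for IC50) to Fluo-4-loaded transfected CHO K1 cells on FLIPR. Duplicates or triplicates, ≥2 independent runs.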
With `COc1cc(C)c(S(=O)(=O)N2CCCCC2COc2ccnc(N3CCN(c4ncccn4)CC3)n2)c(C)c1` (centres unmarked) [H_CC-004, 4-[[1-(4-methoxy-2,6-dimethylphenyl)sulfonyl-2-pipendinyl]methoxy]-2-[4-(2-pyrimidinyl)-1-piperazinyl]pyrimidine], the “% inh. (rat B1R) 10 μM” value is on record as 57%.

As to `COc1cc(C)c(S(=O)(=O)N2CCCCC2COc2ccnc(N3CCN(c4ccncc4)CC3)n2)c(C)c1` (centres unmarked) [H_CC-005, 4-[[1-(4-methoxy-2,6-dimethylphenyl)sulfonyl-2-pipendinyl]methoxy]-2-[4-(4-pyridyl)-1-piperazinyl]pyrimidine], the “% inh. (rat B1R) 10 μM” value is 94%.

Turning to `COc1cc(C)c(S(=O)(=O)N2CCCCC2COc2ccnc(N3CCN(CC4CCN(C)CC4)CC3)n2)c(C)c1` (centres unmarked) [H_CC-006, 4-[[1-(4-methoxy-2,6-dimethylphenyl)sulfonyl-2-pipendinyl]methoxy]-2-[4-[(1-methyl-4-pipendinyl)methyl]-1-piperazinyl]pyrimidine], the “% inh. (rat B1R) 10 μM” value is reported as 61%.

Turning to `COc1cc(C)c(S(=O)(=O)N2CCC[C@H]2COc2ccnc(N3CCN(CC4CCN(C)CC4)CC3)n2)c(C)c1` [H_CC-012, 4-[[(2S)-1-(4-methoxy-2,6-dimethylphenyl)sulfonyl-2-pyrrolidinyl]methoxy]-2-[4-[(1-methyl-4-pipendinyl)methyl]-1-piperazinyl]pyrimidine], the “% inh. (rat B1R) 10 μM” value is 93%.

As for `COc1cc(C)c(S(=O)(=O)N2c3ccccc3C[C@H]2COc2ccnc(N3CCC(CCN4CCCC4)CC3)n2)c(C)c1` [H_CC-017, (2S)-1-(4-methoxy-2,6-dimethylphenyl)sulfonyl-2-[[2-[4-(2-1-pyrrolidinylethyl)-1-pipendinyl]-4-pyrimidinyl]oxymethyl]indoline], the “% inh. (rat B1R) 10 μM” value is reported as 93%.

Consider `COc1cc(C)c(S(=O)(=O)N2c3ccccc3C[C@H]2COc2ccnc(N3CCC(N4CCN(C)CC4)CC3)n2)c(C)c1` [H_CC-018, (2S)-1-(4-methoxy-2,6-dimethylphenyl)sulfonyl-2-[[2-[4-(4-methyl-1-piperazinyl)-1-pipendinyl]-4-pyrimidinyl]oxymethyl]indoline], for which the “% inh. (rat B1R) 10 μM” value amounted to 91%.

With `COc1cc(C)c(S(=O)(=O)N2c3ccccc3C[C@H]2COc2ccnc(N3CCN(CC4CCN(C)CC4)CC3)n2)c(C)c1` [H_CC-020, (2S)-1-(4-methoxy-2,6-dimethylphenyl)sulfonyl-2-[[2-[4-[(1-methyl-4-pipendinyl)methyl]-1-piperazinyl]-4-pyrimidinyl]oxymethyl]indoline], the “% inh. (rat B1R) 10 μM” value stood at 93%.

As to `COc1cc(C)c(S(=O)(=O)N2CCCCC2COc2ccnc(N3CCC(CCN4CCCCC4)CC3)n2)c(C)c1` (centres unmarked) [H_CC-022], the “% inh. (rat B1R) 10 μM” value was determined as 77%.

Still in this assay, the particulars now being: CHO-K1, % inhibition rat B1R at 10 μM, read-out: % inh. (rat B1R) 10 μM.
For the compound `COc1cc(C)c(S(=O)(=O)N(C)C(COc2nccc(N3CCC(c4cccc(F)c4)(N4CCN(C)CC4)CC3)n2)c2ccccc2)c(C)c1` (centres unmarked) [G_CC-135, N-[2-[4-[4-(3-fluorophenyl)-4-(4-methyl-piperazin-1-yl)-piperidin-1-yl]-pyrimidin-2-yl]oxy-1-phenyl-ethyl]-4-methoxy-N,2,6-trimethyl-benzenesulfonic acid amide], the inhibition at 10 µM came to 53%.

For `COc1cc(C)c(S(=O)(=O)N(C)C(COc2nccc(N3CCC(Oc4ccccn4)CC3)n2)c2ccccc2)c(C)c1` (centres unmarked) [G_CC-136, 4-methoxy-N,2,6-trimethyl-N-[1-phenyl-2-[4-(4-pyridin-2-yloxy-piperidin-1-yl)-pyrimidin-2-yl]oxy-ethyl]benzenesulfonic acid amide], the inhibition at 10 µM was 81%.

For `COc1cc(C)c(S(=O)(=O)N(C)C(COc2nccc(N3CCC(C)(N4CCOCC4)CC3)n2)c2ccccc2)c(C)c1` (centres unmarked) [G_CC-137, 4-methoxy-N,2,6-trimethyl-N-[2-[4-(4-methyl-4-morpholin-4-yl-piperidin-1-yl)-pyrimidin-2-yl]oxy-1-phenyl-ethyl]benzenesulfonic acid amide], the inhibition at 10 µM came out at 77%.

Regarding `COc1cc(C)c(S(=O)(=O)N(C)C(COc2nccc(N(C)CCN3CCC(O)(c4cccnc4)CC3)n2)c2ccccc2)c(C)c1` (centres unmarked) [G_CC-138, N-[2-[4-[2-(4-hydroxy-4-pyridin-3-yl-piperidin-1-yl)-ethyl-methyl-amino]-pyrimidin-2-yl]oxy-1-phenyl-ethyl]-4-methoxy-N,2,6-trimethyl-benzenesulfonic acid amide], the inhibition at 10 µM came out at 56%.

As for `COc1cc(C)c(S(=O)(=O)N2CCCCC2COc2ccnc(N3CCN(C4CCN(C)CC4)CC3)n2)c(C)c1` (centres unmarked) [H_CC-001, 4-[[1-(4-methoxy-2,6-dimethylphenyl)sulfonyl-2-piperidinyl]methoxy]-2-[4-(1-methyl-4-piperidinyl)-1-piperazinyl]pyrimidine], the inhibition at 10 µM turned out to be 65%.

For the compound `COc1cc(C)c(S(=O)(=O)N2CCCCC2COc2ccnc(N3CCC(CCN4CCCC4)CC3)n2)c(C)c1` (centres unmarked) [H_CC-002, 4-[[1-(4-methoxy-2,6-dimethylphenyl)sulfonyl-2-piperidinyl]methoxy]-2-[4-(2-1-pyrrolidinylethyl)-1-piperidinyl]pyrimidine], the inhibition at 10 µM stood at 77%.

For the compound `COc1cc(C)c(S(=O)(=O)N2CCCCC2COc2ccnc(N3CCN(C)CC3)n2)c(C)c1` (centres unmarked) [H_CC-003, 4-[[1-(4-methoxy-2,6-dimethylphenyl)sulfonyl-2-piperidinyl]methoxy]-2-(4-methyl-1-piperazinyl)pyrimidine], the inhibition at 10 µM amounted to 58%.

With `COc1cc(C)c(S(=O)(=O)N2CCCCC2COc2ccnc(N3CCC(O)(c4cccnc4)CC3)n2)c(C)c1` (centres unmarked) [H_CC-007, 1-[4-[[1-(4-methoxy-2,6-dimethylphenyl)sulfonyl-2-piperidinyl]methoxy]-2-pyrimidinyl]-4-(3-pyridyl)-4-piperidinol], the inhibition at 10 µM was 71%.

Turning to `COc1cc(C)c(S(=O)(=O)N2CCC[C@H]2COc2ccnc(N3CCN(C)CC3)n2)c(C)c1` [H_CC-008, 4-[[(2S)-1-(4-methoxy-2,6-dimethylphenyl)sulfonyl-2-pyrrolidinyl]methoxy]-2-(4-methyl-1-piperazinyl)pyrimidine], the inhibition at 10 µM was 95%.

Take `COc1cc(C)c(S(=O)(=O)N2CCC[C@H]2COc2ccnc(N3CCC(CCN4CCCC4)CC3)n2)c(C)c1` [H_CC-009, 4-[[(2S)-1-(4-methoxy-2,6-dimethylphenyl)sulfonyl-2-pyrrolidinyl]methoxy]-2-[4-(2-1-pyrrolidinylethyl)-1-piperidinyl]pyrimidine]: the inhibition at 10 µM was 85%.

Turning to `COc1cc(C)c(S(=O)(=O)N2CCC[C@H]2COc2ccnc(N3CCC(N4CCN(C)CC4)CC3)n2)c(C)c1` [H_CC-010, 4-[[(2S)-1-(4-methoxy-2,6-dimethylphenyl)sulfonyl-2-pyrrolidinyl]methoxy]-2-[4-(4-methyl-1-piperazinyl)-1-piperidinyl]pyrimidine], the inhibition at 10 µM was 100%.

`COc1cc(C)c(S(=O)(=O)N2CCC[C@H]2COc2ccnc(N3CCN(c4ncccn4)CC3)n2)c(C)c1` [H_CC-011, 4-[[(2S)-1-(4-methoxy-2,6-dimethylphenyl)sulfonyl-2-pyrrolidinyl]methoxy]-2-[4-(2-pyrimidinyl)-1-piperazinyl]pyrimidine]: the inhibition at 10 µM stood at 56%.

`COc1cc(C)c(S(=O)(=O)N2CCC[C@H]2COc2ccnc(N3CCC(O)(c4cccnc4)CC3)n2)c(C)c1` [H_CC-013, 1-[4-[[(2S)-1-(4-methoxy-2,6-dimethylphenyl)sulfonyl-2-pyrrolidinyl]methoxy]-2-pyrimidinyl]-4-(3-pyridyl)-4-piperidinol]: the inhibition at 10 µM was 79%.

In the case of `COc1cc(C)c(S(=O)(=O)N2CC(Oc3ccnc(N4CCC(CCN5CCCC5)CC4)n3)C2)c(C)c1` [H_CC-014, 4-[[1-(4-methoxy-2,6-dimethylphenyl)sulfonyl-3-azetidinyl]oxy]-2-[4-(2-1-pyrrolidinylethyl)-1-piperidinyl]pyrimidine], the inhibition at 10 µM was determined as 53%.

Regarding `COc1cc(C)c(S(=O)(=O)N2CC(Oc3ccnc(N4CCC(N5CCN(C)CC5)CC4)n3)C2)c(C)c1` [H_CC-015, 4-[[1-(4-methoxy-2,6-dimethylphenyl)sulfonyl-3-azetidinyl]oxy]-2-[4-(4-methyl-1-piperazinyl)-1-piperidinyl]pyrimidine], the inhibition at 10 µM was 56%.

With `COc1cc(C)c(S(=O)(=O)N2c3ccccc3C[C@H]2COc2ccnc(N3CCN(C)CC3)n2)c(C)c1` [H_CC-016, (2S)-1-(4-methoxy-2,6-dimethylphenyl)sulfonyl-2-[[2-(4-methyl-1-piperazinyl)-4-pyrimidinyl]oxymethyl]indoline], the inhibition at 10 µM turned out to be 67%.

With `COc1cc(C)c(S(=O)(=O)N2c3ccccc3C[C@H]2COc2ccnc(N3CCN(c4ccncc4)CC3)n2)c(C)c1` [H_CC-019, (2S)-1-(4-methoxy-2,6-dimethylphenyl)sulfonyl-2-[[2-[4-(4-pyridyl)-1-piperazinyl]-4-pyrimidinyl]oxymethyl]indoline], the inhibition at 10 µM came out at 98%.

For the compound `COc1cc(C)c(S(=O)(=O)N2CCCCC2COc2ccnc(N3CCC4(CCN(Cc5ccccc5)C4)C3)n2)c(C)c1` (centres unmarked) [H_CC-021, 3-benzyl-7-[4-[[1-(4-methoxy-2,6-dimethylphenyl)sulfonyl-2-piperidinyl]methoxy]-2-pyrimidinyl]-3,7-diazaspiro[4.4]nonane], the inhibition at 10 µM was 62%.

Source of the values: patent publication US8269000B2, “Substituted pyrimidine and triazine compounds” (Gruenenthal GmbH, priority 2008, dated 2012).
